From ChEMBL document CHEMBL1129670, “Synthesis and structure-activity relationships of N-propyl-N-(4-pyridinyl)-1H-indol-1-amine (besipirdine) and related analogs as potential therapeutic agents for Alzheimer's disease” (J Med Chem, 1996)

Columns and labels:
Mus musculus [1] = assay: Antagonistic activity against Scopolamine induced behavioral deficits in mice at dose 0.16 mg/kg sc; format: functional; settings: route subcutaneous
[2] = molecular target: Muscarinic acetylcholine receptor; format: cell membranes, Membrane
Description: Inhibition of [3H]quinuclidinyl benzilate (QNB) binding from rat forebrain membranes in the absence of Zn

[3] = molecular target: Muscarinic acetylcholine receptor; format: cell membranes, Membrane; remark: listed apart in the source
Description: Inhibition of [3H]quinuclidinyl benzilate (QNB) binding from rat forebrain membranes in the presence of Zn

Mus musculus [4] = organism: Mus musculus; assay: Antagonistic activity against Scopolamine induced behavioral deficits in mice; 1/10; format: functional
Acetylcholinesterase = molecular target: T1, Acetylcholinesterase (Rattus norvegicus, UniProt P37136)
T1 sequence (P37136 whole entry): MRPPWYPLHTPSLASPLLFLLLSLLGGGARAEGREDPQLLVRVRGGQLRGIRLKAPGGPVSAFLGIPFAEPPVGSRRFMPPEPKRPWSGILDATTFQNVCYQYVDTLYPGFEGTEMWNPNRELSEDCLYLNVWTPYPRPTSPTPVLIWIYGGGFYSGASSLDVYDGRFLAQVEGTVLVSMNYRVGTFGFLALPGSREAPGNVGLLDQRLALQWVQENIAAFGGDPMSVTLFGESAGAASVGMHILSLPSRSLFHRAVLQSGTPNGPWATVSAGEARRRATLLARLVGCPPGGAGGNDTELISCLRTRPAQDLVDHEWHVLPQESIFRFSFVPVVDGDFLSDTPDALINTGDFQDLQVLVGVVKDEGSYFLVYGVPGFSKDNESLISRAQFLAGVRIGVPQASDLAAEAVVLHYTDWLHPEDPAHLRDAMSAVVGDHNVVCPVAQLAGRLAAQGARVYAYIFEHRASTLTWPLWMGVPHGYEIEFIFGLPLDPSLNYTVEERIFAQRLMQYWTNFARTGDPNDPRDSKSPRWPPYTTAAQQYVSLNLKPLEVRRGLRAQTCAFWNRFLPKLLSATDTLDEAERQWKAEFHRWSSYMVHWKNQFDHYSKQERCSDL
Description: Inhibitory activity against acetylcholinesterase in rat striatal preparation

[5] = molecular target: Sodium-dependent noradrenaline transporter (Homo sapiens, UniProt P23975)
Chain of Sodium-dependent noradrenaline transporter (P23975 whole entry): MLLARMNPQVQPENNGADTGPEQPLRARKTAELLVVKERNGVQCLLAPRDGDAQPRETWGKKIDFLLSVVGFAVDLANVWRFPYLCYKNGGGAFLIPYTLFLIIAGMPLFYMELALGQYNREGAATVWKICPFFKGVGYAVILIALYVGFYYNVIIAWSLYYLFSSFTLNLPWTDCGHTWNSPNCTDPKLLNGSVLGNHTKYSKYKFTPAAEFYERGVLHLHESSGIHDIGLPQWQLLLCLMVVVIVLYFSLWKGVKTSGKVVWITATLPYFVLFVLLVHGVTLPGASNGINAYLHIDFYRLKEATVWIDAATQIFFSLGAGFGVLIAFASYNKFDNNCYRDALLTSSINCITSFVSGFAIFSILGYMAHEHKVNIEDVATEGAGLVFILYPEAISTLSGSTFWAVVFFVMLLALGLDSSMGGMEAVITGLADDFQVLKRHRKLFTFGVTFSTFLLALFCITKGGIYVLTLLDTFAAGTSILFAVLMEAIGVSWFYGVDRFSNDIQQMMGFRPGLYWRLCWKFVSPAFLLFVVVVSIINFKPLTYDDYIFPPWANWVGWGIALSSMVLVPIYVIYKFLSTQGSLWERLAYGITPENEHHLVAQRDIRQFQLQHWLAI
Description: Inhibitory activity against norepinephrine (NE) uptake in rat whole brain synaptosome preparation

Mus musculus [6] = organism: Mus musculus; assay: animal or person
Description: Effective dose against administration in mice

Mus musculus [7] = organism: Mus musculus; assay: Antagonistic activity against Scopolamine induced behavioral deficits in mice; 2/3; format: functional
Mus musculus [8] = assay: Antagonistic activity against Scopolamine induced behavioral deficits in mice at dose 0.3 mg/kg sc; format: functional; settings: route subcutaneous
Mus musculus [9] = assay: Antagonistic activity against Scopolamine induced behavioral deficits in mice at dose 1.0 mg/kg sc; format: functional; settings: route subcutaneous
Mus musculus [10] = assay: Antagonistic activity against Scopolamine induced behavioral deficits in mice at dose 5.0 mg/kg sc; 1/3; format: functional
Mus musculus [11] = organism: Mus musculus; assay: Antagonistic activity against Scopolamine induced behavioral deficits in mice; 1/3; format: functional
Mus musculus [12] = organism: Mus musculus; assay: Antagonistic activity against Scopolamine induced behavioral deficits in mice; 2/6; format: functional
Mus musculus [13] = organism: Mus musculus; settings: dose 0.63 mg/kg; route subcutaneous
Description: Antagonistic activity against Scopolamine induced behavioral deficits in mice at dose 0.63 mg/kg sc

[14] = molecular target: T2, Adrenergic receptor alpha-2 (Rattus norvegicus, UniProt P22086+P19328+P22909); assay: Inhibitory activity against [3H]clonidine binding to Alpha-2 adrenergic receptor in rat cortex
T2 sequence (P22086 whole entry): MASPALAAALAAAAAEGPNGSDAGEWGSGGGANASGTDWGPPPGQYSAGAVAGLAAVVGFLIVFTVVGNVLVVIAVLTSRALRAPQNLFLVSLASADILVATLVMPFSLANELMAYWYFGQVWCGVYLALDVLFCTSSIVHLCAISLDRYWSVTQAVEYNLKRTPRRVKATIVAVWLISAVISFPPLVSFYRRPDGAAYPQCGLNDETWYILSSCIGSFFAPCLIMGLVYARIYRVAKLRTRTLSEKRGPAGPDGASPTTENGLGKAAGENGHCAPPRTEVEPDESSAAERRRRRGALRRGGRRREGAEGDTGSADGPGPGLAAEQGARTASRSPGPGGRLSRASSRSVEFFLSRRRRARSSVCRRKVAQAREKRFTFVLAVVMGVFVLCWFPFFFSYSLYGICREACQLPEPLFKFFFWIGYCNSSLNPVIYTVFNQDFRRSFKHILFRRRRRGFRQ
T2 sequence (P19328 whole entry): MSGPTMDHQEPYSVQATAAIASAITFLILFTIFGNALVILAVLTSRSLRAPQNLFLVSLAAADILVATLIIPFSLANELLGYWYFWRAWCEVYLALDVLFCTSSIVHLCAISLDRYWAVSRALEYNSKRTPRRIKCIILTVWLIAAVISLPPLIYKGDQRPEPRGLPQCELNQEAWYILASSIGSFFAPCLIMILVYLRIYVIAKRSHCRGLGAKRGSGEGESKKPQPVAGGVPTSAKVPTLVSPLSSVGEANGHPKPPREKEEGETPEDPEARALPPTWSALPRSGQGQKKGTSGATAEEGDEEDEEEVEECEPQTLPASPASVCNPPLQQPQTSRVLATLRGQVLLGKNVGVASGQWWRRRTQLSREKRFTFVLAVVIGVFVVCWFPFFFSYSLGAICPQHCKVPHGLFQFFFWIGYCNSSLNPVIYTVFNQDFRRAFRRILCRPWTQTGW
T2 sequence (P22909 whole entry): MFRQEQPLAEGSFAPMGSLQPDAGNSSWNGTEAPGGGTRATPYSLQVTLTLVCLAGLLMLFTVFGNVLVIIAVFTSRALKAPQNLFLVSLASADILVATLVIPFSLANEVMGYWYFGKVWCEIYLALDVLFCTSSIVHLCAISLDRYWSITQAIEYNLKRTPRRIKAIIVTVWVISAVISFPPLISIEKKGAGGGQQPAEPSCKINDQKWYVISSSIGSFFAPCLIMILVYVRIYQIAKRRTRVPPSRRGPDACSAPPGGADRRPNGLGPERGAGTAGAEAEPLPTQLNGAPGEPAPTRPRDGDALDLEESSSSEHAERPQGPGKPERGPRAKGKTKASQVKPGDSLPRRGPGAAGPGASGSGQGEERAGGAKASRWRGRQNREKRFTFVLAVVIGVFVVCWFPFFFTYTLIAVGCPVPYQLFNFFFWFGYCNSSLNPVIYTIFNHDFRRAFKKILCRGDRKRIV

Mus musculus [15] = organism: Mus musculus; assay: Antagonistic activity against Scopolamine induced behavioral deficits in mice; 2/10; format: functional
Mus musculus [16] = assay: Antagonistic activity against Scopolamine induced behavioral deficits in mice at dose 0.04 mg/kg sc; format: functional; settings: route subcutaneous
Mus musculus [17] = assay: Antagonistic activity against Scopolamine induced behavioral deficits in mice at dose […] sc; format: functional; settings: route subcutaneous
[18] = molecular target: T3, Adrenergic receptor alpha-1 (Rattus norvegicus, UniProt P15823+P23944+P43140); assay: Inhibitory activity against [3H]WB-4101 binding to Alpha-1 adrenergic receptor in rat whole brain membrane; format: cell membranes
T3 sequence (P15823 whole entry): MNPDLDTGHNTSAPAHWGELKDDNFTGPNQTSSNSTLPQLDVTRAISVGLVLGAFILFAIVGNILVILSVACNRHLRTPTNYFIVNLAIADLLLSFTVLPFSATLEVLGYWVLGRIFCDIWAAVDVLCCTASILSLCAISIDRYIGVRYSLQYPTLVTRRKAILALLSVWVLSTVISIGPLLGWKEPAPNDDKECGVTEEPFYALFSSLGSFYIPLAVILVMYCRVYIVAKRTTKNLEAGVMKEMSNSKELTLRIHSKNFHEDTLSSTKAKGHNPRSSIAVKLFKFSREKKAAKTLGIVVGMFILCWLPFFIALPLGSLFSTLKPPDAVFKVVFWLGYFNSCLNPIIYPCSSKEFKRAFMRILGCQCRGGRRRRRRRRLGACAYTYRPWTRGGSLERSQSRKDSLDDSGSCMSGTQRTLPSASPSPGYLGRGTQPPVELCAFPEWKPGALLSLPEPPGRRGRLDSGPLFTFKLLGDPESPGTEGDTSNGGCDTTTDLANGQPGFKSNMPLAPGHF
T3 sequence (P23944 whole entry): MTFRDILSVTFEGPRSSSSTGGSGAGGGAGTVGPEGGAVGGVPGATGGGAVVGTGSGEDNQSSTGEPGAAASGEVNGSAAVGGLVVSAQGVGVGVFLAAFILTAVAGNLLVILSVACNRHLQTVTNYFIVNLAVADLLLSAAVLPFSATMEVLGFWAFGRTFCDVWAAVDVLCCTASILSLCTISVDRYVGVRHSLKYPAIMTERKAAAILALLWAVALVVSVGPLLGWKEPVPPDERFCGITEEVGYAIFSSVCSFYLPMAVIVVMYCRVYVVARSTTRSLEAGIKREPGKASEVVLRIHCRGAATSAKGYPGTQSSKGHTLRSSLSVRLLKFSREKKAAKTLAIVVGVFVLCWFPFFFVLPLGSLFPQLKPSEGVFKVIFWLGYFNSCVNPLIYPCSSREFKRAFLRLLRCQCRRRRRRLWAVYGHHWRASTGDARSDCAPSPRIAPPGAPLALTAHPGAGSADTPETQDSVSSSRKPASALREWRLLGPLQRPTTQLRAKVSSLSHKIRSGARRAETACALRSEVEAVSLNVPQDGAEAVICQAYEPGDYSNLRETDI
T3 sequence (P43140 whole entry): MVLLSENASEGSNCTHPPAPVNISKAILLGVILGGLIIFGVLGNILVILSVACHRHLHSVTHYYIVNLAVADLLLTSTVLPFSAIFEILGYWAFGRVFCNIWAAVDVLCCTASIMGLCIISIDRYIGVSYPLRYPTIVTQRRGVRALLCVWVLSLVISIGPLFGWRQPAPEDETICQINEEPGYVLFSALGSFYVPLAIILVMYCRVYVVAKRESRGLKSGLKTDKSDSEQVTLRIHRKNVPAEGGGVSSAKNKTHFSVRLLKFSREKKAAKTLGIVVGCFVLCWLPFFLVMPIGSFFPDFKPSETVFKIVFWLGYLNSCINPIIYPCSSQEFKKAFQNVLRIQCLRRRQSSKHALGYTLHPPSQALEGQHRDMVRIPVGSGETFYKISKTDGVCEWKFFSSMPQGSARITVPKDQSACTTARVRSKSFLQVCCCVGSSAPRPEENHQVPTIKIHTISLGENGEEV

Mus musculus [19] = assay: Antagonistic activity against Scopolamine induced behavioral deficits in mice at dose 5.0 mg/kg sc; 2/8; format: functional
Mus musculus [20] = assay: Antagonistic activity against Scopolamine induced behavioral deficits in mice at dose 1.25 mg/kg sc; format: functional; settings: route subcutaneous
Mus musculus [21] = assay: Antagonistic activity against Scopolamine induced behavioral deficits in mice at dose 10 mg/kg sc; format: functional; settings: route subcutaneous

SMILES	IC50 [2]	IC50 [3]	IC50 (Acetylcholinesterase)	IC50 [5]	ED50 (Mus musculus [6])	also measured
CCCN(c1ccncc1)n1cc(C(C)=O)c2ccccc21	29 µM	2.7 µM	58 µM	3.3 µM	5 mg/kg	Response (Mus musculus [1]): 20%; Antagonism (Mus musculus [4]): 1
c1ccc2c(c1)ccn2Cc1ccncc1	223 µM	84 µM		> 20 µM		Antagonism (Mus musculus [7]): 2; Response (Mus musculus [8]): 33%; Response (Mus musculus [9]): 20%
CCCC(c1ccncc1)n1ccc2ccccc21 (stereo unspecified)	142 µM	29 µM		0.67 µM		Antagonism (Mus musculus [10]): 1; Response (Mus musculus [8]): 20%
CN(c1ccncc1)n1ccc2cc(Br)ccc21	4.6 µM	2.5 µM	> 100 µM	13 µM	> 20 mg/kg	Antagonism (Mus musculus [11]): 1; Response (Mus musculus [9]): 44%
CCCN(c1[nH]cnc2ncnc1-2)n1ccc2ccccc21	> 300 µM	58 µM		12 µM	> 20 mg/kg	Antagonism (Mus musculus [12]): 2; Response (Mus musculus [1]): 20%; Response (Mus musculus [13]): 20%
CCCN(c1ccncc1)n1cc(C)c2ccccc21	19 µM	4.5 µM	29 µM	1.3 µM	1.8 mg/kg	IC50 [14]: 2.5 µM; Antagonism (Mus musculus [15]): 2; Response (Mus musculus [16]): 22%; Response (Mus musculus [17]): 20%
CCCN(c1ccncc1)n1c2ccccc2c2ccccc21.O=C(O)/C=C/C(=O)O	5.5 µM	0.5 µM	> 100 µM	2.4 µM	1.5 mg/kg	IC50 [18]: 3.2 µM; IC50 [14]: 0.54 µM; Antagonism (Mus musculus [19]): 2; Response (Mus musculus [20]): 20%; Response (Mus musculus [21]): 24%
